These results are taken from ChEMBL document CHEMBL5321208, “The effect of side chain variations on quinazoline-pyrimidine G-quadruplex DNA ligands” (Eur J Med Chem, 2023).

In general, ΔTm refers to the shift of the melting midpoint relative to a reference. By Kd is commonly meant a measure of binding affinity in units of concentration. By IC50 is commonly meant the concentration that gives 50% inhibition.

The test system of data set [1] is Quadruplex DNA. In words: Binding affinity to FAM/TAMRA-labelled parallel c-MYC Pu24T G4 DNA (unknown origin) assessed as thermal stabilization at 1 to 8 uM measured at 10 to 95 degreeC by FRET analysis. The class given is nucleic-acid assay. The following applies: dose 1-8 µM.
Data set [2] concerns dsDNA. Description: Binding affinity to double stranded DNA (unknown origin) assessed as thermal stabilization at 1 to 8 uM measured at 10 to 95 degreeC by FRET analysis. The class given is nucleic-acid assay. The note with it: dose 1-8 µM.
Data set [3] has as its system Quadruplex DNA. In words: Binding affinity to FAM/TAMRA-labelled c-MYC Pu22 G4 DNA (unknown origin) assessed as thermal stabilization at 1 to 8 uM measured at 10 to 95 degreeC by FRET analysis. The format is nucleic-acid assay. The note with it: dose 1-8 µM.
For data set [4], the system named is Quadruplex DNA. In words: Binding affinity to FAM/TAMRA-labelled c-KIT1 G4 DNA (unknown origin) assessed as thermal stabilization at 1 to 8 uM measured at 10 to 95 degreeC by FRET analysis. The format is nucleic-acid assay. The following applies: dose 1-8 µM.
Data set [5] relates to Quadruplex DNA. Description: Binding affinity to FAM/TAMRA-labelled c-KIT2 G4 DNA (unknown origin) assessed as thermal stabilization at 1 to 8 uM measured at 10 to 95 degreeC by FRET analysis. The note with it: dose 1-8 µM. The class given is nucleic-acid assay.
Data set [6] has as its system Quadruplex DNA. Description: Binding affinity to FAM/TAMRA-labelled 21g G4 DNA (unknown origin) assessed as thermal stabilization at 1 to 8 uM measured at 10 to 95 degreeC by FRET analysis. The format is nucleic-acid assay. The following applies: dose 1-8 µM.
Data set [7] concerns Quadruplex DNA. In words: Binding affinity to FAM/TAMRA-labelled parallel 25ceb G4 DNA (unknown origin) assessed as thermal stabilization at 1 to 8 uM measured at 10 to 95 degreeC by FRET analysis. The class given is nucleic-acid assay. The following applies: dose 1-8 µM.
The subject of data set [8] is Quadruplex DNA. Description: Binding affinity to FAM/TAMRA-labelled antiparallel Bom17 G4 DNA (unknown origin) assessed as thermal stabilization at 1 to 8 uM measured at 10 to 95 degreeC by FRET analysis. The note with it: dose 1-8 µM. The class given is nucleic-acid assay.
Data set [9] deals with Quadruplex DNA. Description: Binding affinity to FAM/TAMRA-labelled antiparallel TBA G4 DNA (unknown origin) assessed as thermal stabilization at 1 to 8 uM measured at 10 to 95 degreeC by FRET analysis. The class given is nucleic-acid assay. The following applies: dose 1-8 µM.
Data set [10] relates to Quadruplex DNA. Description: Binding affinity to FAM/TAMRA-labelled parallel c-MYC Pu24T G4 DNA (unknown origin) assessed as thermal stabilization in the presence of 15 equivalents of double stranded DNA by FRET competition assay. The format is nucleic-acid assay.
In data set [11] the test system is Quadruplex DNA. Description: Binding affinity to FAM/TAMRA-labelled parallel KRAS G4 DNA (unknown origin) assessed as thermal stabilization in the presence of 15 equivalents of double stranded DNA by FRET competition assay. The class given is nucleic-acid assay.
In data set [12] the test system is Quadruplex DNA. Description: Binding affinity to FAM/TAMRA-labelled parallel c-MYC Pu24T G4 DNA (unknown origin) assessed as thermal stabilization by measuring change in melting temperature at 2 uM in the presence of 100 equivalents of double stranded DNA by FRET competition assay. The class given is nucleic-acid assay.
The test system of data set [13] is Quadruplex DNA. In words: Binding affinity to FAM/TAMRA-labelled parallel KRAS G4 DNA (unknown origin) assessed as thermal stabilization by measuring change in melting temperature at 2 uM in the presence of 100 equivalents of double stranded DNA by FRET competition assay. The format is nucleic-acid assay.
The subject of data set [14] is Quadruplex DNA. In words: Binding affinity to parallel c-MYC Pu24T G4 DNA (unknown origin) assessed as change in topology at 5 uM by CD spectra analysis. The format is nucleic-acid assay.
In data set [15] the test system is Quadruplex DNA. Description: Binding affinity to parallel c-MYC Pu24T G4 DNA (unknown origin) assessed as thermal stabilization by measuring change in melting temperature at 5 uM measured at 1:1 DNA to ligand ratio by CD spectra analysis. The format is nucleic-acid assay.
Data set [16] addresses Quadruplex DNA. In words: Binding affinity to 5'-Cy5-labelled parallel c-MYC Pu24T G4 DNA (unknown origin) assessed as dissociation constant by MST analysis. The format is nucleic-acid assay.
In data set [17] the test system is Quadruplex DNA. In words: Binding affinity to FAM/TAMRA-labelled parallel KRAS G4 DNA (unknown origin) assessed as thermal stabilization at 1 to 8 uM measured at 10 to 95 degreeC by FRET analysis. The format is nucleic-acid assay. The note with it: dose 1-8 µM.
Data set [18] can be described thus: Antitumor activity against KPC mouse pancreatic cancer organoid expressing lentiviral modified GFP co-cultured with WT C57BL/6J mouse pancreatic stellate cells expressing mKate2 assessed as inhibition of cell growth incubated for 5 days by resazurin dye based fluorescence microscopic analysis. The class given is functional, tissue-based. The following applies: 120 h.

Data set [19] is described as follows: Cytotoxicity against wildtype C57BL/6J mouse cancer activated fibroblast cells assessed as inhibition of cell growth incubated for 5 days by resazurin dye based fluorescence microscopic analysis. The format is toxicity. On the technique in general: The colour change of resazurin is a common sign of viable cells or microbes.

Activity calls are given as the source filed them. The calls are words filed in the database; no cut-off is given here.

On to `Cc1cc(NCCCN2CCNCC2)nc(Nc2nc(C)c3ccc4c(c3n2)CCCC4)n1`, for which the result in [1] was Active. In data set [2], the outcome was inactive.

Consider `Cc1cc(NCCCN2CCCCC2)nc(Nc2nc(C)c3ccc4c(c3n2)CCCC4)n1`, for which the outcome in data set [1], in data set [3], in data set [4], in data set [5], in [6] and in data set [10] was Active. Besides, in data set [11], the result was Active. Moreover, the result in data set [2], in data set [7], in [8], in [9] and in data set [14] was inactive. For the same compound, the ΔTm in data set [12] was 7 °C; in data set [13], 10 °C; in [15], 5 °C. Besides, the Kd in data set [16] was found to be 175 nM.

Take `Cc1cc(N2CCN(C(=O)OC(C)(C)C)CC2)nc(Nc2nc(C)c3ccc4c(c3n2)CCC4)n1`: the outcome in [1], in data set [17] and in data set [2] was inactive.

Turning to `Cc1cc(NCCN2CCN(C)CC2)nc(Nc2nc(C)c3ccc4c(c3n2)CCC4)n1`, the result in [1] and in data set [17] was Active. In data set [2], the outcome was inactive. Moreover, in data set [18], the concentration for half-maximal inhibition (IC50) turned out to be 547 nM. In data set [19], the IC50 at 5 days was more than 500 nM.

Regarding `CCN(CC)c1cc(C)nc(Nc2nc(C)c3ccc4c(c3n2)CCC4)n1`, the result in data set [2] was inactive.

Take `Cc1cc(N2CCOCC2)nc(Nc2nc(C)c3ccc4c(c3n2)CCCC4)n1`: the result in data set [2] was inactive.

For the compound `CCOC(=O)CCN1CCN(c2cc(C)nc(Nc3nc(C)c4ccc5c(c4n3)CCCC5)n2)CC1`, the outcome in data set [1], in [17] and in [2] was inactive.

As for `Cc1cc(N2CCN(c3ncccn3)CC2)nc(Nc2nc(C)c3ccc4c(c3n2)CCC4)n1`, the outcome in [1], in [17] and in data set [2] was inactive.

Regarding `Cc1cc(N2CCN(C(=O)OC(C)(C)C)CC2)nc(Nc2nc(C)c3ccc4c(c3n2)CCCC4)n1`, the result in data set [1], in data set [17] and in data set [2] was inactive.

For `Cc1cc(NCCN2CCOCC2)nc(Nc2nc(C)c3ccc4c(c3n2)CCCC4)n1`, the outcome in [2] was inactive.

As for `Cc1cc(N2CCN(C)CC2)nc(Nc2nc(C)c3ccc4c(c3n2)CCCC4)n1`, the outcome in [1] was Active. Besides, in [2], the outcome was inactive.

Regarding `Cc1cc(N2CCOCC2)nc(Nc2nc(C)c3ccc4c(c3n2)CCC4)n1`, the outcome in data set [2] was inactive.

For `Cc1cc(N(C)C)nc(Nc2nc(C)c3ccc4c(c3n2)CCCC4)n1`, in data set [1], the outcome was Active. Moreover, the result in data set [2] was inactive.

Turning to `CCN(CC)c1cc(C)nc(Nc2nc(C)c3ccc4c(c3n2)CCCC4)n1`, the result in data set [1] was Active. Further, in [2], the outcome was inactive.

For the compound `Cc1cc(NCCCN2CCCC2)nc(Nc2nc(C)c3ccc4c(c3n2)CCCC4)n1`, the outcome in data set [1], in data set [3], in data set [4], in data set [5], in [6] and in [10] was Active. For the same compound, the result in data set [11] was Active. Also, the result in data set [2], in data set [7], in data set [8], in [9] and in data set [14] was inactive. The shift in melting temperature (ΔTm) in data set [12] came out at 7 °C; in data set [13], 10 °C; in data set [15], 8 °C. Also, in data set [16], the Kd was 245 nM.

In the case of `CCN(CC)CCCNc1cc(C)nc(Nc2nc(C)c3ccc4c(c3n2)CCCC4)n1`, the result in [1], in [3], in data set [4], in data set [5], in data set [6] and in data set [10] was Active. Moreover, the outcome in data set [11] was Active. The result in data set [2], in data set [7], in data set [8], in [9] and in [14] was inactive. The shift in melting temperature (ΔTm) in [12] was 7 °C; in data set [13], 10 °C; in data set [15], 7 °C. Also, in [16], the Kd worked out at 230 nM.

As to `Cc1cc(NCCCN2CCN(C)CC2)nc(Nc2nc(C)c3ccc4c(c3n2)CCCC4)n1`, the result in data set [1], in data set [3], in [4], in [5], in data set [6] and in data set [10] was Active. In addition, in [11], the result was Active. Also, the outcome in data set [2], in data set [7], in data set [8], in data set [9] and in data set [14] was inactive. The results for the thermal shift (ΔTm) in [12], in data set [13] and in data set [15] were 7 °C, 10 °C and 6 °C, respectively. Moreover, the equilibrium dissociation constant (Kd) in data set [16] is 280 nM.

Consider `Cc1cc(NCCN2CCNCC2)nc(Nc2nc(C)c3ccc4c(c3n2)CCCC4)n1`, for which, in [1], the outcome was Active. The result in data set [2] was inactive.

With `Cc1cc(N2CCN(c3ncccn3)CC2)nc(Nc2nc(C)c3ccc4c(c3n2)CCCC4)n1`, the result in data set [1], in [17] and in data set [2] was inactive.

On to `Cc1cc(N2CCNCC2)nc(Nc2nc(C)c3ccc4c(c3n2)CCCC4)n1`, for which the result in [1] and in data set [17] was Active. Moreover, the outcome in [2] was inactive.

Turning to `Cc1cc(N2CCNCC2)nc(Nc2nc(C)c3ccc4c(c3n2)CCC4)n1`, the outcome in data set [1] and in data set [17] was Active. For the same compound, the outcome in data set [2] was inactive.

Take `CCOC(=O)CCN1CCN(c2cc(C)nc(Nc3nc(C)c4ccc5c(c4n3)CCC5)n2)CC1`: the outcome in data set [1], in data set [17] and in data set [2] was inactive.

Regarding `CCN(CC)CCCCCNc1cc(C)nc(Nc2nc(C)c3ccc4c(c3n2)CCCC4)n1`, the result in data set [1] was Active.

On to `Cc1cc(NCCN2CCN(C)CC2)nc(Nc2nc(C)c3ccc4c(c3n2)CCCC4)n1`, for which the outcome in [1] and in data set [17] was Active. Moreover, in [2], the outcome was inactive.

On to `Cc1cc(NCCN2CCOCC2)nc(Nc2nc(C)c3ccc4c(c3n2)CCC4)n1`, for which the result in data set [2] was inactive.

In the case of `Cc1cc(NCCCN)nc(Nc2nc(C)c3ccc4c(c3n2)CCCC4)n1`, in data set [1], the outcome was Active. Further, in [2], the outcome was inactive.

Take `CCN(CC)CCNc1cc(C)nc(Nc2nc(C)c3ccc4c(c3n2)CCCC4)n1`: in data set [1], the outcome was Active. For the same compound, in data set [2], the result was inactive.
